Measurements reported in patent US8779154B2, “Fused ring compounds for inflammation and immune-related uses” (priority 2006, dated 2014).

Test system: IL-2 production
Test: Inhibition of IL-2 production in PHA-activated Jurkat cells (ELISA)
Type: cell-based
Conditions: Homo sapiens, Jurkat, 20 h, PHA 2.5 μg/mL, IL-2 ELISA
Method: Jurkat cells were placed in a 96 well plate (0.5 million cells per well in 1% FBS medium) then a test compound of this invention was added at different concentrations. After 10 minutes, the cells were activated with PHA (final concentration 2.5 μg/mL) and incubated for 20 hours at 37° C. under CO2. The final volume was 200 μL. Following incubation, the cells were centrifuged and the supernatants collected and stored at −70° C. prior to assaying for IL-2 production. A commercial ELISA kit (IL-2 Eli-pair, Diaclone Research, Besancon, France) was used to detect production of IL-2, from which dose response curves were obtained. The IC50 value was calculated as the concentration at which 50% of maximum IL-2 production after stimulation was inhibited versus a non-stimulation control.

First: O=C(Nc1c(F)cccc1F)c1nc2c(s1)-c1cc(-c3cn[nH]c3)ccc1CCC2 [Compound 128]
Second: O=C(Nc1c(F)cccc1F)c1nc2c(s1)-c1cc(-c3cnc[nH]3)ccc1CCC2 [Compound 131]
The IC50 of the first is lower: 100 to 250 nM for the first, 500 to 1000 nM for the second.

`Cn1cncc1-c1ccc2c(c1)-c1sc(C(=O)Nc3c(F)cccc3F)nc1CCC2` [Compound 129] and `Fc1cccc(F)c1NC(=S)c1nc2c(s1)-c1cc(-c3cnco3)ccc1CCC2` [Compound 148] cannot be ordered by IC50: no more than 30 nM for the first, 30 to 100 nM for the second.

`O=C(Nc1c(F)cccc1F)c1nc2c(s1)-c1nc(-c3cccnc3)sc1CCC2` [Compound 133] and `O=C(Nc1ccc2c(c1)CCCc1sc(-c3cccnc3)nc1-2)c1c(F)cccc1F` [Compound 155] fall in the same range of IC50: 30 to 100 nM for the first, 30 to 100 nM for the second.

`CN1Cc2ccc(Br)cc2-c2sc(NC(=O)c3c(F)cccc3F)nc2C1=O` [Compound 135] and `O=C1NCc2ccc(Br)cc2-c2sc(NC(=O)c3c(F)cccc3F)nc21` [Compound 136] cannot be ordered by IC50: greater than 1000 nM for the first, greater than 1000 nM for the second.

Compared with `CN1Cc2ccc(Br)cc2-c2sc(NCc3c(F)cccc3F)nc2C1` [Compound 137], `CN1Cc2ccc(Br)cc2-c2sc(NC(=O)c3c(F)cccc3F)nc2C1` [Compound 138] is lower in IC50: greater than 1000 nM for the first, 250 to 500 nM for the second. The second is the more potent here.

`O=C1OCc2ccc(Br)cc2-c2sc(NC(=O)c3c(F)cccc3F)nc21` [Compound 139] and `CN1Cc2ccc(Br)cc2-c2sc(C(=O)Nc3c(F)cccc3F)nc2C1=O` [Compound 140] cannot be ordered by IC50: greater than 1000 nM for the first, greater than 1000 nM for the second.

First: O=C(Nc1c(F)cccc1F)c1ccc2c(c1)CCCc1cnc(-c3cccnc3)nc1-2 [Compound 142]
Second: N=C(Nc1c(F)cccc1F)c1nc2c(s1)-c1cc(-c3cnco3)ccc1CCC2 [Compound 153]
The IC50 of the first is lower: 100 to 250 nM for the first, 250 to 500 nM for the second. The first is the more potent here.

Compared with `CCOC(=O)N(C(=O)c1nc2c(s1)-c1cc(OC)ccc1CCC2)c1c(F)cccc1F` [Compound 143], `COc1ccc2c(c1)-c1sc(C(=N)Nc3c(F)cccc3F)nc1CCC2` [Compound 152] is higher in IC50: 100 to 250 nM for the first, 500 to 1000 nM for the second. The first is the more potent here.

`COc1ccc2c(c1)-c1sc(/C(=N/c3c(F)cccc3F)SC)nc1CCC2` [Compound 144] and `C/N=C(/Nc1c(F)cccc1F)c1nc2c(s1)-c1cc(OC)ccc1CCC2` [Compound 145] cannot be ordered by IC50: greater than 1000 nM for the first, greater than 1000 nM for the second.

First: COc1ccc2c(c1)-c1sc(/C(=N\O)Nc3c(F)cccc3F)nc1CCC2 [Compound 147]
Second: CC/N=C(/Nc1c(F)cccc1F)c1nc2c(s1)-c1cc(OC)ccc1CCC2 [Compound 149]
The IC50 of the first is higher: 500 to 1000 nM for the first, 100 to 250 nM for the second.

In the case of `COc1ccc2c(c1)-c1sc(NC(=O)Nc3c(F)cccc3F)nc1CCC2` [Compound 154], the IC50 is reported as 500 to 1000 nM.
